According to ChEMBL document CHEMBL1149976, “Novel, extended transition state mimic in HIV-1 protease inhibitors with peripheral C-2-symmetry” (Bioorg Med Chem Lett, 1994):
The source made the active and inactive calls. No cut-off for these calls is given here.

How the values were obtained:
MT4 = test: Inhibition of HIV-1 induced cytopathic effect in HTLV1 transformed MT-4 cells.; assay type: functional; settings: Homo sapiens, read-out: ED50 (the source's name)
[1] = target: Human immunodeficiency virus type 1 protease (Human immunodeficiency virus 1) (UniProt Q72874); test: Percentage inhibition against HIV-1 protease was determined at a concentration of 12.5 uM
[2] = target: Human immunodeficiency virus type 1 protease (Human immunodeficiency virus 1, UniProt Q72874); test: Binding affinity for HIV-1 protease
[3] = target: Human immunodeficiency virus type 1 protease (Human immunodeficiency virus 1) (UniProt Q72874); test: Binding affinity against HIV-1 protease was determined at a concentration of 12.5 uM; Not active
[4] = target: Human immunodeficiency virus type 1 protease (Human immunodeficiency virus 1) (UniProt Q72874); test: Binding affinity against HIV-1 protease was determined at a concentration 12.5 uM; not active

Row | inhibition [1] | inhibition [3] | inhibition [4] | Compound | EC50 (MT4) | Ki [2]
1 | 31% | – | – | CC(C)(C)[C@H](NC(=O)c1nc2ccccc2[nH]1)C(=O)N[C@@H](Cc1ccccc1)[C@@H](O)[C@H](CO)[C@H](Cc1ccccc1)NC(=O)[C@@H](NC(=O)c1nc2ccccc2[nH]1)C(C)(C)C | > 10 µM | –
2 | – | – | – | CC(C)[C@H](NC(=O)OCc1ccccc1)C(=O)N[C@@H](Cc1ccccc1)[C@H](O)[C@@H](CO)[C@H](Cc1ccccc1)NC(=O)OC(C)(C)C | > 10 µM | 3700 nM
3 | 42% | – | – | CC(C)(C)[C@H](NC(=O)c1nc2ccccc2[nH]1)C(=O)N[C@@H](Cc1ccccc1)[C@H](O)[C@@H](CO)[C@H](Cc1ccccc1)NC(=O)[C@@H](NC(=O)c1nc2ccccc2[nH]1)C(C)(C)C | > 10 µM | –
4 | 22% | – | – | CC(C)(C)[C@H](N)C(=O)N[C@@H](Cc1ccccc1)[C@@H](O)[C@H](CO)[C@H](Cc1ccccc1)NC(=O)[C@@H](N)C(C)(C)C | > 10 µM | –
5 | 32% | – | – | CC(C)[C@H](NC(=O)OCc1ccccc1)C(=O)N[C@@H](Cc1ccccc1)[C@@H](O)[C@@H](CO)[C@H](Cc1ccccc1)NC(=O)[C@@H](CC(N)=O)NC(=O)OCc1ccccc1 | > 10 µM | –
6 | 20% | – | – | COC(=O)[C@@H]([C@H](O)[C@H](Cc1ccccc1)NC(=O)[C@@H](NC(=O)OCc1ccccc1)C(C)C)[C@H](Cc1ccccc1)NC(=O)OC(C)(C)C | – | –
7 | – | – | – | CC(C)(C)[C@H](NC(=O)CCc1nc2ccccc2[nH]1)C(=O)N[C@@H](Cc1ccccc1)[C@H](O)[C@@H](CO)[C@H](Cc1ccccc1)NC(=O)[C@@H](NC(=O)CCc1nc2ccccc2[nH]1)C(C)(C)C | > 10 µM | 160 nM
8 | 39% | – | – | CC(C)[C@H](NC(=O)OCc1ccccc1)C(=O)N[C@@H](Cc1ccccc1)[C@H](O)[C@@H](CO)[C@H](Cc1ccccc1)NC(=O)C(NC(=O)OCc1ccccc1)C(C)(C)C (single isomer, unassigned; diastereomer B) | > 10 µM | –
9 | – | inactive | – | COC(=O)[C@H]([C@@H](O)[C@H](Cc1ccccc1)NC(=O)[C@@H](NC(=O)OCc1ccccc1)C(C)C)[C@H](Cc1ccccc1)NC(=O)OC(C)(C)C | – | –
10 | 8% | – | – | CC(C)(C)[C@H](N)C(=O)N[C@@H](Cc1ccccc1)[C@H](O)[C@@H](CO)[C@H](Cc1ccccc1)NC(=O)[C@@H](N)C(C)(C)C | > 10 µM | –
11 | – | – | – | CC(C)(C)[C@H](NC(=O)OCc1nc2ccccc2[nH]1)C(=O)N[C@@H](Cc1ccccc1)[C@@H](O)[C@H](CO)[C@H](Cc1ccccc1)NC(=O)[C@@H](NC(=O)OCc1nc2ccccc2[nH]1)C(C)(C)C | 0.5 µM | 13 nM
12 | – | – | – | CC(C)(C)C(NC(=O)OCc1ccccc1)C(=O)N[C@@H](Cc1ccccc1)[C@H](CO)[C@@H](O)[C@H](Cc1ccccc1)NC(=O)[C@@H](NC(=O)OCc1ccccc1)C(C)(C)C (single isomer, unassigned; diastereomer B) | > 10 µM | 255 nM
13 | – | – | – | CC(C)[C@H](NC(=O)OCc1ccccc1)C(=O)N[C@@H](Cc1ccccc1)[C@@H](O)[C@H](CO)[C@H](Cc1ccccc1)NC(=O)OC(C)(C)C | > 10 µM | 290 nM
14 | 18% | – | – | CC(C)[C@H](NC(=O)OCc1ccccc1)C(=O)N[C@@H](Cc1ccccc1)[C@@H](O)[C@H](C(=O)O)[C@H](Cc1ccccc1)NC(=O)OC(C)(C)C | – | –
15 | – | – | – | CC(C)C(NC(=O)OCc1ccccc1)C(=O)N[C@@H](Cc1ccccc1)[C@@H](CO)[C@H](O)[C@H](Cc1ccccc1)NC(=O)[C@@H](NC(=O)OCc1ccccc1)C(C)C (single isomer, unassigned; diastereomer A) | 3.7 µM | 27 nM
16 | – | – | – | CC(C)C(NC(=O)OCc1ccccc1)C(=O)N[C@@H](Cc1ccccc1)[C@@H](C(=O)O)[C@H](O)[C@H](Cc1ccccc1)NC(=O)[C@@H](NC(=O)OCc1ccccc1)C(C)C (stereo partly specified) | – | 430 nM
17 | – | – | – | CC(C)(C)[C@H](NC(=O)CCc1nc2ccccc2[nH]1)C(=O)N[C@@H](Cc1ccccc1)[C@@H](O)[C@H](CO)[C@H](Cc1ccccc1)NC(=O)[C@@H](NC(=O)CCc1nc2ccccc2[nH]1)C(C)(C)C | 0.52 µM | 9 nM
18 | – | – | – | CC(C)[C@H](NC(=O)OCc1ccccc1)C(=O)N[C@@H](Cc1ccccc1)[C@@H](O)[C@H](CO)[C@H](Cc1ccccc1)NC(=O)C(NC(=O)OCc1ccccc1)C(C)(C)C (stereo partly specified) | 2.5 µM | 16 nM
19 | – | – | inactive | CC(C)[C@H](NC(=O)OCc1ccccc1)C(=O)N[C@@H](Cc1ccccc1)[C@H](O)[C@@H](C(=O)O)[C@H](Cc1ccccc1)NC(=O)OC(C)(C)C | – | –
20 | – | – | – | CC(C)(C)C(NC(=O)OCc1ccccc1)C(=O)N[C@@H](Cc1ccccc1)[C@@H](CO)[C@H](O)[C@H](Cc1ccccc1)NC(=O)[C@@H](NC(=O)OCc1ccccc1)C(C)(C)C (single isomer, unassigned; diastereomer A) | 1.6 µM | 13 nM
21 | – | – | – | CC(C)C(NC(=O)OCc1ccccc1)C(=O)N[C@@H](Cc1ccccc1)[C@H](CO)[C@@H](O)[C@H](Cc1ccccc1)NC(=O)[C@@H](NC(=O)OCc1ccccc1)C(C)C (single isomer, unassigned; diastereomer B) | > 10 µM | 510 nM
22 | – | – | – | CC(C)(C)[C@H](NC(=O)OCc1nc2ccccc2[nH]1)C(=O)N[C@@H](Cc1ccccc1)[C@H](O)[C@@H](CO)[C@H](Cc1ccccc1)NC(=O)[C@@H](NC(=O)OCc1nc2ccccc2[nH]1)C(C)(C)C | 4.7 µM | 29 nM
23 | – | – | – | CC(C)[C@H](NC(=O)OCc1ccccc1)C(=O)N[C@@H](Cc1ccccc1)[C@@H](O)[C@H](CO)[C@H](Cc1ccccc1)NC(=O)[C@H](CC(N)=O)NC(=O)OCc1ccccc1 | > 10 µM | 340 nM
